Reference: paper doi:10.1101/2022.01.20.477145v2 (biorxiv, 2022)

Biological target: NL-PRMT5 (NLuc-PRMT5) (Homo sapiens, UniProt O14744)
Experiment: NanoBRET target engagement, displacement of CBH-002
Assay type: cell-based

Sequence of NL-PRMT5 (NLuc-PRMT5) (O14744 2-637): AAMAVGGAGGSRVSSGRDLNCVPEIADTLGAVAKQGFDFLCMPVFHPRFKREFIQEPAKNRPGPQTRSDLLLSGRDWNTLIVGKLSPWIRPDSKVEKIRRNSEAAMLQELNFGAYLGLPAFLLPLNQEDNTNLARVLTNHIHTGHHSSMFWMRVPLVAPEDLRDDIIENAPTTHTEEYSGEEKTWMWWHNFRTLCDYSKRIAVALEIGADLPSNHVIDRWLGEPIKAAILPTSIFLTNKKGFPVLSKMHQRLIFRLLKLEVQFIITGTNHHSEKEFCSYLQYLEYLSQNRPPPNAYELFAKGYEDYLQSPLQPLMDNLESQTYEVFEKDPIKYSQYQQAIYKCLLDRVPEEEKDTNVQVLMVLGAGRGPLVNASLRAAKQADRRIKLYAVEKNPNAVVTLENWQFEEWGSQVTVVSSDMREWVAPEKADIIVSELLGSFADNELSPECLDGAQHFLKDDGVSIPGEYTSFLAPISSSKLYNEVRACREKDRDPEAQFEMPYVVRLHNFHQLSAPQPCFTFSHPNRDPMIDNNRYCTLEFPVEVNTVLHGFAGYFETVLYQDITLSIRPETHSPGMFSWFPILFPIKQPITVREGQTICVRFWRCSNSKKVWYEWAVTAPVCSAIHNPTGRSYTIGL

SMILES: Nc1ncnc2c1ccn2[C@@H]1O[C@H]([C@H](O)c2ccccc2)[C@@H](O)[C@H]1O [LLY-283]
- EC50: 300 ± 100 nM
